Test results reported in PMC6315349 (2018).

Experiments:
Experiment in all cases: fluorescence turn-on
[1] = test system: RNA half adder + AND_DNA inhibitor + XOR_DNA inhibitor (0-0) (DNA:RNA, aptamer) GGUGCCCGCUGACCGGAGACGGUCAAAUAGAGCACAGGAUGGUAACGAAUGACCAGCCCGAGGUCGCGACCUUCUUUUCCCUCGCGACUCGAAAUGUUUCUUUUCGAGGUCGCCCCGUAUCUGUCGAGUAGAGUGUGGGCUCGCACGCGGCUGCC/GGCGGCTGCCGCGCAGAGACGGUCGGGUCCAGAUAUUGGAUCUUUCGCCUUUUCGCGAUACGGGCCAACGAUGGGUUUUGAAGGUCGCGACAAGGGCUGGTCCGACAUCCCACACAAATAGAGTGTGGGCCGAGCAGCGGCACC/GGUGCCCGCUGACCGGAGACGGUCAAAUAGAGCACAGGAUGGUAACGAAUGACCAGCCCGAGGGCGACCUCGUUUUGUACCAGCAUCCUCUUCAUAAGUUUUGGCGAAAGAUCCCGUAUCUGUCGAGUAGAGUGUGGGCUCGCACGCGGCUGCC/GGCGGCUGCCGCGCAGAGACGGUCGGGUCCAGAUAUUGGGCGACCUCGUUUUCCGGGAUAUGGUCUCGGCCAACUUUUCGAGGUCGCCCAAGGGCUGGUCCGACAUCCCACACAAAUAGAGUGUGGGCCGAGCAGCGGCAGC/GGAUGCUGGUACUUUUGUUGGCCGAGACCAUAUCCCGGUUUUGAAACAUUUCGAGUCGCGAGGGUUUUCCCAUCGUUGGCCCGUAUCGCGUUUUCUUAUGAAGA/ATAACAGCGCGTAGGGCCACGCTGCCGCTGCTCGGCCCACACTCTATTTGACCGGGATGTCGGACCAGCTGGTCATTCCTTACCATCCCACACTCTATTTGACCGTCTCCGGTCAGCGGGCAGGCGAGCCCTACGCGCTGTTAT/GGCAGCCGCGTGTGCCGCTGGCTCGGCCACACTCTATTTGACCGTCCGGTGCGAGCTGCGCGGCGAGCCCTA; details: 22 °C, 1 μM RNA strands, 2 μM each inhibitor, 5 μM dye
[2] = test system: RNA AND/OR gate (no inputs, 0-0) (RNA, aptamer) GGUUUCAACCUUUGCAAACAUGCUUUGGAUGGUAACGAAUGACCAGCCCGAAAGGGCUGGUCCGACAUCCUUUGGGAAAUCCUUUGGGUGCCGUUU; details: 100 mM NaCl, 10 mM MgCl2; 50 mM Tris pH 8.0, 22 °C; 1 μM RNA, 2 μM dye; output OFF (<60% normalized)
[3] = test system: RNA NAND/NOR gate (no inputs, 0-0) (RNA, aptamer) GGUUUGCAAACAUGCUUUGGAUGGUAACGAAUGACCAGCCCGAAAGGGCUGGUCCGACAUCCUUUGGGAAAUCCUUU; details: 100 mM NaCl, 10 mM MgCl2; 50 mM Tris pH 8.0, 22 °C; 1 μM RNA, 2 μM dye; output ON
[4] = test system: AND gate + AND_input A + AND_input B (1-1) (DNA:RNA, aptamer) GGUUUCAACCUUUGCAAACAUGCUUUGGAUGGUAACGAAUGACCAGCCCGAAAGGGCUGGUCCGACAUCCUUUGGGAAAUCCUUUGGGUGCCGUUU/GTAAGCTTTGGTTGA/AAACAGCGTCCAGAGGAT; details: 100 mM NaCl, 10 mM MgCl2; 50 mM Tris pH 8.0, 22 °C; 1 μM RNA, 2 μM dye, 2 μM each input; output ON
[5] = test system: AND gate + AND_input A (1-0) (DNA:RNA, aptamer) GGUUUCAACCUUUGCAAACAUGCUUUGGAUGGUAACGAAUGACCAGCCCGAAAGGGCUGGUCCGACAUCCUUUGGGAAAUCCUUUGGGUGCCGUUU/GTAAGCTTTGGTTGA …; details: 100 mM NaCl, 10 mM MgCl2; 50 mM Tris pH 8.0, 22 °C; 2 μM dye, 2 μM input; output OFF (<60% normalized)
[6] = test system: AND gate + AND_input B (0-1) (DNA:RNA, aptamer) GGUUUCAACCUUUGCAAACAUGCUUUGGAUGGUAACGAAUGACCAGCCCGAAAGGGCUGGUCCGACAUCCUUUGGGAAAUCCUUUGGGUGCCGUUU/AAACAGCGTCCAGAGGAT; details: 100 mM NaCl, 10 mM MgCl2; 50 mM Tris pH 8.0, 22 °C; 2 μM dye, 2 μM input; output OFF (<60% normalized)
[7] = test system: OR gate + OR_input A + OR_input B (1-1) (DNA:RNA, aptamer) GGUUUCAACCUUUGCAAACAUGCUUUGGAUGGUAACGAAUGACCAGCCCGAAAGGGCUGGUCCGACAUCCUUUGGGAAAUCCUUUGGGUGCCGUUU/GCATGTTTGCAAAGGTTGAAA/AAACGGCGTCCAAAGGATTTCCC; details: 100 mM NaCl, 10 mM MgCl2; 50 mM Tris pH 8.0, 22 °C; 1 μM RNA, 2 μM dye, 2 μM each input; output ON
[8] = test system: OR gate + OR_input A (1-0) (DNA:RNA, aptamer) GGUUUCAACCUUUGCAAACAUGCUUUGGAUGGUAACGAAUGACCAGCCCGAAAGGGCUGGUCCGACAUCCUUUGGGAAAUCCUUUGGGUGCCGUUU/GCATGTTTGCAAAGGTTGAAA; details: 100 mM NaCl, 10 mM MgCl2; 50 mM Tris pH 8.0, 22 °C; 1 μM RNA, 2 μM dye, 2 μM each input; output ON
[9] = test system: OR gate + OR_input B (0-1) (DNA:RNA, aptamer) GGUUUCAACCUUUGCAAACAUGCUUUGGAUGGUAACGAAUGACCAGCCCGAAAGGGCUGGUCCGACAUCCUUUGGGAAAUCCUUUGGGUGCCGUUU/AAACGGCGTCCAAAGGATTTCCC; details: 100 mM NaCl, 10 mM MgCl2; 50 mM Tris pH 8.0, 22 °C; 1 μM RNA, 2 μM dye, 2 μM each input; output ON
[10] = test system: NAND gate + NAND_input A + NAND input B (1-1) (DNA:RNA, aptamer) GGUUUGCAAACAUGCUUUGGAUGGUAACGAAUGACCAGCCCGAAAGGGCUGGUCCGACAUCCUUUGGGAAAUCCUUU/CTATAGCATGTTTGC/TTGATTTCCCTTTGGT; details: 100 mM NaCl, 10 mM MgCl2; 50 mM Tris pH 8.0, 22 °C; 2 μM dye; output OFF (<60% normalized)
[11] = test system: NAND gate + NAND_input A (1-0) (DNA:RNA, aptamer) GGUUUGCAAACAUGCUUUGGAUGGUAACGAAUGACCAGCCCGAAAGGGCUGGUCCGACAUCCUUUGGGAAAUCCUUU/CTATAGCATGTTTGC; details: 100 mM NaCl, 10 mM MgCl2; 50 mM Tris pH 8.0, 22 °C; 2 μM dye; fluorescence lower than without input
[12] = test system: NAND gate + NAND input B (0-1) (DNA:RNA, aptamer) GGUUUGCAAACAUGCUUUGGAUGGUAACGAAUGACCAGCCCGAAAGGGCUGGUCCGACAUCCUUUGGGAAAUCCUUU/TTGATTTCCCTTTGGT; details: 100 mM NaCl, 10 mM MgCl2; 50 mM Tris pH 8.0, 22 °C; 2 μM dye; fluorescence slightly higher than without input
[13] = test system: NOR gate + NOR_input A + NOR_input B (1-1) (DNA:RNA, aptamer) GGUUUGCAAACAUGCUUUGGAUGGUAACGAAUGACCAGCCCGAAAGGGCUGGUCCGACAUCCUUUGGGAAAUCCUUU/CCATCCAAAGCATGTTTGCAAA/AAAGGATTTCCCAAAGGATGTCGGACC; details: 100 mM NaCl, 10 mM MgCl2; 50 mM Tris pH 8.0, 22 °C; 1 μM RNA, 2 μM dye, 2 μM each input; output OFF
[14] = test system: NOR gate + NOR_input A (1-0) (DNA:RNA, aptamer) GGUUUGCAAACAUGCUUUGGAUGGUAACGAAUGACCAGCCCGAAAGGGCUGGUCCGACAUCCUUUGGGAAAUCCUUU/CCATCCAAAGCATGTTTGCAAA; details: 100 mM NaCl, 10 mM MgCl2; 50 mM Tris pH 8.0, 22 °C; 1 μM RNA, 2 μM dye, 2 μM each input; output OFF
[15] = test system: NOR gate + NOR_input B (0-1) (DNA:RNA, aptamer) GGUUUGCAAACAUGCUUUGGAUGGUAACGAAUGACCAGCCCGAAAGGGCUGGUCCGACAUCCUUUGGGAAAUCCUUU/AAAGGATTTCCCAAAGGATGTCGGACC; details: 100 mM NaCl, 10 mM MgCl2; 50 mM Tris pH 8.0, 22 °C; 1 μM RNA, 2 μM dye, 2 μM each input; output OFF

SMILES	binding ([1]; low fluorescence at 510 nm)	binding [2]	binding [3]	binding [4]	binding [5]	binding [6]	binding [7]	binding [8]	binding [9]	binding [10]	binding [11]	binding [12]	binding [13]	binding [14]	binding [15]	binding ([1]; low fluorescence at 650 nm)
CC1=N/C(=C\c2cc(F)c(O)c(F)c2)C(=O)N1C	no															
CN(C)c1ccc(C(=C2C=CC(=[N+](C)C)C=C2)c2ccccc2)cc1		no	yes	yes	weak	weak	yes	yes	yes	weak	yes	yes	no	no	no	no
